The values that follow are results of earlier work, collected in patent US6410588B1, “Use of cannabinoids as anti-inflammatory agents” (priority 1998, dated 2002).

For data set [1], the system named is antibody formation against sheep red blood cells. The following applies: studies in mice; cited from earlier work.
The next data set deals with nitric oxide (NO). The following applies: macrophages activated by LPS and IFNγ; cited from earlier work.
In another data set the test system is IFNγ. The following applies: cited from earlier work.

Each structure is given as a SMILES string.

Take `CCCCCc1cc(O)c2c(c1)OC(C)(C)C1CCC(C)=CC21` (stereo not shown) [THC, Delta-9-tetrahydrocannabinoid, reference compound]: in data set [1], the “antibody formation against sheep red blood cells” value was “suppresses antibody formation”. Besides, in the data set on nitric oxide (NO), the “nitric oxide (NO) production” value is recorded as “inhibited”. For the same compound, in the data set on IFNγ (high concentrations (5-24 μg/ml)), the IFNγ synthesis entry is “completely blocked IFNγ synthesis”. Also, the IFNγ production result in the data set on IFNγ (low concentrations) is recorded as “increase IFNγ production”.
